Key:
Test in all cases: relative viability (nuclei count vs DMSO), 5 days (fraction); higher = more cells survive
AZ3146 + Pemetrexed = compound: CN1CCC(CC1)OC2=CC(=C(C=C2)NC3=NC=C4C(=N3)N(C(=O)N4C)C5CCCC5)OC [AZ3146] + Nc1nc2[nH]cc(CCc3ccc(C(=O)N[C@@H](CCC(=O)O)C(=O)O)cc3)c2c(=O)[nH]1 [Pemetrexed] (partner 0.2 µM)
In short: (§1)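 A single step with final 0.05% Triton X-100, 1% formaldehyde and 1 ug/ml Hoechst fixed the cells and stained nuclei 5 days after treatment. Lung cancer cell lines in 1536-well plates had been treated by pin tool the day after seeding with one drug alone or a fixed anchor-drug dose plus five library-drug doses (not always all listed) in √10 steps, and nuclei were counted on 4× images. Relative viability is the ratio of nuclei in treated wells to nuclei in vehicle wells, taken as the median of duplicate plates.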

AZ3146 + OSI-027 = compound: CN1CCC(CC1)OC2=CC(=C(C=C2)NC3=NC=C4C(=N3)N(C(=O)N4C)C5CCCC5)OC [AZ3146] + COc1cccc2cc(-c3nc([C@H]4CC[C@H](C(=O)O)CC4)n4ncnc(N)c34)[nH]c12 [OSI-027] (partner 0.5 µM)
In short: as §1

AZ3146 + Lapatinib = compound: CN1CCC(CC1)OC2=CC(=C(C=C2)NC3=NC=C4C(=N3)N(C(=O)N4C)C5CCCC5)OC [AZ3146] + CS(=O)(=O)CCNCc1ccc(-c2ccc3ncnc(Nc4ccc(OCc5cccc(F)c5)c(Cl)c4)c3c2)o1 [Lapatinib] (partner 2 µM)
In short: as §1

GSK-J4 + Foretinib = compound: CCOC(=O)CCNc1cc(N2CCc3ccccc3CC2)nc(-c2ccccn2)n1 [GSK-J4] + COc1cc2c(Oc3ccc(NC(=O)C4(C(=O)Nc5ccc(F)cc5)CC4)cc3F)ccnc2cc1OCCCN1CCOCC1 [Foretinib] (partner 0.25 µM)
In short: as §1

| Cell Line | relative viability (AZ3146 + Pemetrexed; first compound 0.08 µM) | relative viability (AZ3146 + Pemetrexed; first compound 0.253 µM) | relative viability (AZ3146 + Pemetrexed; first compound 0.8 µM) | relative viability (AZ3146 + Pemetrexed; first compound 2.53 µM) | relative viability (AZ3146 + Pemetrexed; first compound 8 µM) | relative viability (AZ3146 + OSI-027; first compound 0.08 µM) | relative viability (AZ3146 + OSI-027; first compound 0.253 µM) | relative viability (AZ3146 + OSI-027; first compound 0.8 µM) | relative viability (AZ3146 + OSI-027; first compound 2.53 µM) | relative viability (AZ3146 + OSI-027; first compound 8 µM) | relative viability (AZ3146 + Lapatinib; first compound 0.08 µM) | relative viability (AZ3146 + Lapatinib; first compound 0.253 µM) | relative viability (AZ3146 + Lapatinib; first compound 0.8 µM) | relative viability (AZ3146 + Lapatinib; first compound 2.53 µM) | relative viability (AZ3146 + Lapatinib; first compound 8 µM) | relative viability (GSK-J4 + Foretinib; first compound 0.5 µM) | relative viability (GSK-J4 + Foretinib; first compound 5 µM) | relative viability (GSK-J4 + Foretinib; first compound 15.81 µM) | relative viability (GSK-J4 + Foretinib; first compound 50 µM) | relative viability (GSK-J4 + Foretinib; first compound 1.581 µM) |
| --- | --- | --- | --- | --- | --- | --- | --- | --- | --- | --- | --- | --- | --- | --- | --- | --- | --- | --- | --- | --- |
| NCI-H2087 | 0.648 | 0.683 | 0.684 | 0.67 | 0.661 | 0.54 | 0.656 | 0.469 | 0.674 | 0.525 | 0.899 | 1.08 | 1.08 | 0.906 | 1.14 | 0.973 | 1.13 | 1.1 | 0.818 | – |
| NCI-H2126 | 0.613 | 0.662 | 0.618 | 0.677 | 0.696 | 0.6 | 0.706 | 0.537 | 0.784 | 0.649 | 0.691 | 0.745 | 0.707 | 0.818 | 0.729 | 1.06 | 1.14 | 0.889 | 0.795 | 1.05 |
| NCI-H2170 | 0.269 | 0.248 | 0.26 | 0.268 | 0.281 | 0.676 | 0.66 | 0.66 | 0.713 | 0.713 | 0.265 | 0.283 | 0.252 | 0.273 | 0.277 | 0.949 | 0.917 | 1.02 | 0.958 | 0.983 |
| NCI-H2228 | 0.297 | 0.325 | 0.333 | 0.298 | 0.37 | 0.484 | 0.579 | 0.498 | 0.615 | 0.429 | 1.08 | 1.13 | 1.21 | 1.23 | 0.889 | 0.764 | 0.854 | 0.817 | 1.06 | 1.03 |
| NCI-H2347 | 0.42 | 0.418 | 0.458 | 0.404 | 0.416 | 0.245 | 0.452 | 0.48 | 0.293 | 0.466 | 0.853 | 0.832 | 0.939 | 1.04 | 1.03 | 1.16 | 1.06 | 0.843 | 0.826 | 0.716 |
| NCI-H2405 | 1.12 | 1.06 | 1.1 | 1.11 | 1.04 | 0.652 | 0.62 | 0.582 | 0.696 | 0.641 | 1.11 | – | 0.967 | 1.31 | 1.29 | 1.06 | – | 0.98 | 1.04 | 0.948 |
| NCI-H3122 | 0.197 | 0.191 | 0.203 | 0.2 | 0.185 | 1.07 | 1.03 | 0.776 | 0.92 | 0.729 | 1.09 | 1.04 | 0.952 | 1 | 1.02 | 0.983 | 0.938 | 1.05 | 0.969 | 1.01 |
| PC-3 [JPC-3] | 0.999 | – | 1.19 | 1.02 | 0.942 | 0.624 | 0.792 | 0.789 | 0.77 | 0.776 | 0.368 | 0.459 | 0.419 | 0.47 | 0.444 | 0.96 | 1.01 | 0.959 | 0.762 | 1.01 |
| PC-14 | 0.138 | 0.131 | 0.142 | 0.119 | 0.0971 | 0.805 | 0.784 | 0.741 | 0.853 | 0.185 | 0.285 | 0.351 | 0.279 | 0.382 | 0.315 | 0.902 | 0.794 | 0.926 | 0.963 | 0.832 |
| RERF-LC-KJ | 0.43 | 0.485 | 0.461 | 0.473 | 0.488 | 0.669 | 0.548 | 0.571 | 0.575 | 0.398 | 0.816 | 0.889 | 0.839 | 0.804 | 0.84 | 0.824 | 0.882 | 0.803 | 0.852 | 0.796 |
| SK-LU-1 | 0.921 | 1.03 | 0.961 | 1.06 | 0.879 | 0.358 | 0.326 | 0.304 | 0.342 | 0.357 | 0.803 | 0.972 | 0.825 | 1.13 | 0.697 | 0.727 | 0.62 | 0.598 | 0.603 | 0.722 |
| SK-MES-1 | 1.02 | 0.976 | 0.965 | 0.997 | 0.792 | 0.659 | 0.621 | 0.568 | 0.569 | 0.452 | 0.496 | 0.43 | 0.424 | 0.523 | 0.432 | 0.808 | 0.843 | 0.624 | 0.866 | 0.757 |
| SW 1573 | 0.815 | 0.844 | 0.861 | 0.82 | 0.228 | 0.678 | 0.633 | 0.453 | 0.662 | 0.204 | 1.19 | 1.17 | 1.07 | 1.04 | 1.05 | 0.846 | 0.751 | 0.776 | 0.764 | 0.69 |

Reference: the supplement of paper PMC10307832
